In patent US20240108634A1, “COMPOSITIONS AND METHODS FOR INHIBITING YAP” (The United States Government as represented by the …, priority 2021, published 2024):
Like-named read-outs stand apart in the source and are kept apart here.

Assays:
[1] = target: T1, total YAP (Homo sapiens, UniProt P46937); test: Total YAP ELISA in GBM cells; format: cell-based
T1 construct: endogenous in cells; host or cells: LN229
Description: (§1) Levels of total YAP were determined via ELISA. […] Immunoprecipitates were immunoblotted for the indicated proteins. […] Cells were treated with the indicated concentrations of inhibitor for 18 h and mRNA extracted for real time RT-PCR analyses. Measurements were performed in quadruplicate and means and+S.D. are shown. […] Cells were treated with (+) or without (−) NSC682769 (100 nM, 18 h) and harvested and separated into cytoplasmic and nuclear cellular fractions. Cytoplasmic versus nuclear material was subsequently immunoblotted for the indicated proteins. […] Values in top right corner of panels correspond to the percentage of nuclear localized YAP. Cells were grown on coverslips and treated with NSC682769. Cells were permeabilized and stained using primary antibody to YAP1 and FITC-conjugated secondary. Nuclei were stained with DAPI. Scale bar, 20 μm.
Surface plasmon resonance (SPR), ELISA, YAP-TEAD reporter activity, cellular fractionation, and immunofluorescence analyses. SPR experiments were carried out on a Nicoya OpenSPR™ instrument using immobilized YAP on a carboxyl-coated sensor. Binding was observed as the change in response units (RU) as analyte was injected at a flow rate of 10 μl/min at 25° C. TraceDrawer™ was used for kinetic analyses. The PathScan® total-YAP ELISA kit was obtained from Cell Signaling and used according to the manufacturer's instructions. YAP-TEAD reporter activity was determined as previously described (Kim N G, Gumbiner B M (2015) J Cell Biol 210: 503-515). HOP-flash contains multiple copies of wild-type TEAD-binding sites with a minimal promoter upstream of a luciferase reporter gene. Luciferase activity was measured via a luciferase assay system (Promega). Nuclear-cytoplasmic fractionation was performed according to Dignam et al. (Dignam J D, et al. (1983) Nucleic Acids Res 11: 1475-1489). Briefly, the buffers used were kept on ice and centrifugations were done at 4° C. with soft braking. After a single wash with PBS, cells were scraped with PBS (containing 1 mM DTT and 1× protease inhibitor) and harvested by centrifugation at 1000×g for 15 min. The cell pellet was gently resuspended with five times the volume of pellet with buffer A (10 mM HEPES, pH 7.9, 1.5 mM MgCl2, 10 mM KCl, 0.5 mM DTT, and 1× protease inhibitor) and incubated on ice for 15 min, followed by homogenization (Wheaton). Cell lysis was monitored by trypan blue staining. The cell lysate was spun at 1000×g for 5 min to collect the pellet as the nuclear fraction and the supernatant as the cytoplasmic fraction. […]

[2] = target: T2, YAP association with TEAD1-4, SMAD7, p73, FOS, TBXS (Homo sapiens, UniProt P46937); test: HA-YAP1 immunoprecipitation from LN229 cells, immunoblot for TEAD1-4 and other transcription factors; format: cell-based; conditions: LN229 cells expressing HA-YAP, 18 h
T2 construct: expressed in transfected cells
T2 sequence (P46937 whole entry): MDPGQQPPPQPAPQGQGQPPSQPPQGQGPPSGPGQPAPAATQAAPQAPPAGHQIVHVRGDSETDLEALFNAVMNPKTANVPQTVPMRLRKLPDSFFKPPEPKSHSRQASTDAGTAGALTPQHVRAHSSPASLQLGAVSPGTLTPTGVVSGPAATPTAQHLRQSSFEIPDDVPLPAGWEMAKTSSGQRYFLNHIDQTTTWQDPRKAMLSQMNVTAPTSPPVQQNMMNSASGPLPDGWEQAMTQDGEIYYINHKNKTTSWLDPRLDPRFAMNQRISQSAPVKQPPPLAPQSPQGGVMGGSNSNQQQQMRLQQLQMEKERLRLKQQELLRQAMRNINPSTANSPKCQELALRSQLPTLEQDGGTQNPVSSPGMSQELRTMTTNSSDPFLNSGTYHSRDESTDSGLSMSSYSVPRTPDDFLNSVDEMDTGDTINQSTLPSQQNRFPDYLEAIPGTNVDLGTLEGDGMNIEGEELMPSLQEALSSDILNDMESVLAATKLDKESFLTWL
Description: as §1, with “Cells were grown on coverslips and treated with NSC682769. Cells were permeabilized and stained using primary antibody to YAP1 and FITC-conjugated secondary. Nuclei were stained with DAPI. Scale bar, 20 μm.” left out
Protein and mRNA analyses, immunoprecipitation, in vitro bead-coupled inhibitor binding assays and HPLC analyses. […] Antigen-antibody complexes were detected using appropriate horseradish peroxidase-conjugated secondary antibodies (GE Healthcare) and enhanced chemiluminescence (Amersham ECL Prime). […] For quantitative RT-PCR, extraction of RNA was performed using Trizol® (Life Technologies). Total RNA was then quantified and integrity assessed using an Agilent 2100 Bioanalyzer (Agilent Technology). […] SYBR® Green quantitative PCR (Millipore Sigma) was performed in triplicate in 96-well optical plates on an ABI Prism 7000 Sequence Detection System (Life Technologies) according to the manufacturer's instructions. […]

T1 sequence (P46937 whole entry): as above

Compound: COc1ccc(-c2cc(-c3ccccc3)nc3c2CC(=O)Nc2ccccc2-3)cc1OC [NSC682769]
- DC50 ([1]; GBM39 cells, read-out: IC50, inhibition of total YAP (ELISA)): 5.1 nM
- DC50 ([1]; LN229 cells, read-out: IC50, inhibition of total YAP (ELISA)): 11.8 nM
- DC50 ([1]; LN229 cells, read-out: IC50 for YAP (ELISA)): 11.8 nM
- DC50 ([1]; patient-derived GBM39 cells, read-out: IC50 for YAP (ELISA)): 5.1 nM
- Binding of TEAD1-4 to YAP [2]: inhibited the binding of the four TEAD members to YAP
- SMAD7, p73, FOS or TBXS association with YAP [2]: no appreciable effects
